According to US4231936A, “Mitomycin C derivatives” (priority 1977, dated 1980):

Assays:
[1] = test system: Bacillus subtilis ATCC 10707; assay: Minimum inhibitory concentration (Table I); assay type: cell-based
Text: (§1) Comparative data similarly obtained by using mitomycin A, mitomycin C and 7-N-phenyl mitomycin C are also shown in this table

[2] = test system: Klebsiella pneumoniae ATCC 10031; assay: Minimum inhibitory concentration (Table I); assay type: cell-based
Text: as §1

[3] = test system: Shigella sonnei ATCC 9290; assay: Minimum inhibitory concentration (Table I); assay type: cell-based
Text: as §1

[4] = test system: Staphylococcus aureus ATCC 6538P; assay: Minimum inhibitory concentration (Table I); assay type: cell-based
Text: as §1

[5] = background statement; cited from earlier work
[6] = background statement; cited from earlier work; remark: listed apart in the source

SMILES: CO[C@@]12[C@H](COC(N)=O)C3=C(C(=O)C(C)=C(N)C3=O)N1C[C@@H]1N[C@@H]12 [II, mitomycin C]
- minimum inhibitory concentration [1]: < 0.025
- minimum inhibitory concentration [2]: < 0.025
- minimum inhibitory concentration [3]: 1.563
- minimum inhibitory concentration [4]: 0.049
- antitumor activity [5]: interesting antitumor activity
- toxicity [6]: relatively high toxicity
